Consider 1 compound from article PMC7920489 (Pharmaceuticals, 2021).

The conditions of data set [1]: nude, mouse, in vivo, ip, 50 mg/kg.
Another data set can be described thus: in vivo. The following applies: nude, mouse, ip, 50 mg/kg.

Read-outs that look alike come from different tables or passages of the source.

Turning to `COc1cccc(-c2cc(=O)c3ccccc3o2)c1NC(=O)C(C)(C)c1cc(C(=O)Nc2ccc(N(CCCl)CCCl)cc2)ccc1N` [AL530], the tmax in data set [1] is 2.5 h; in the data set “in vivo”, 2 h.
